Assay results as given in ChEMBL document CHEMBL3885861, “Open TG-GATES”.

Species on record: Rattus norvegicus
Assay: Open TG-GATES - Regimen: Single
Format: toxicity, organism-based, Sprague-Dawley
Design: regimen Single, gender Male, age 6 weeks
Details: in vivo, iv, route intravenous injection; for APTT / Bas / Eos / Fbg / Hb / Ht / Lym / MCH / MCHC / MCV / Mono / Neu / Plat / RBC / Ret / WBC / PT: tissue Blood; for KIDNEY_L / KIDNEY_R / KIDNEY_TOTAL: tissue Kidney; for LIVER: tissue Liver; for ALP / ALT / AST / CRE / Ca / DBIL / GLC / IP / K / Na / PL / RALB / TBIL / TC / TG / TP / gamma-GTP / BUN / LDH: tissue Plasma
[1] = 1 mg/kg, 9 h, dose level Middle
[2] = 1 mg/kg, 24 h, dose level Middle

## CISPLATIN
[1]
  TERMINAL_BW: 214.2 g
  APTT: 23.6 s
  Bas: 0%
  Eos: 0.4%
  Fbg: 267.8 mg/dL
  Hb: 12.7 g/dL
  Ht: 39.1%
  Lym: 81.8%
  MCH: 20.6 pg
  MCHC: 32.4%
  MCV: 63.7 fL
  Mono: 2.2%
  Neu: 15%
  Plat: 132.5 x10_4/uL
  RBC: 613.6 x10_4/ul
  Ret: 6.7%
  WBC: 93.8 x10_2/uL
  KIDNEY_L: 1 g
  KIDNEY_R: 1 g
  KIDNEY_TOTAL: 2 g
  LIVER: 9 g
  ALP: 1312 IU/L
  ALT: 39.2 IU/L
  AST: 73 IU/L
  CRE: 0.1 mg/dL
  Ca: 11 mg/dL
  DBIL: 0 mg/dL
  GLC: 179.2 mg/dL
  IP: 9.9 mg/dL
  K: 4.2 meq/L
  Na: 139.6 meq/L
  PL: 120.6 mg/dL
  RALB: 2.9 g/dL
  TBIL: 0.028 mg/dL
  TC: 67 mg/dL
  TG: 51.8 mg/dL
  TP: 5.3 g/dL
  gamma-GTP: 1.4 IU/L
[2]
  TERMINAL_BW: 213.8 g
  Bas: 0%
  Eos: 0.8%
  Fbg: 329 mg/dL
  MCH: 21 pg
  MCHC: 32.9%
  MCV: 63.9 fL
  Mono: 3%
  Neu: 16%
  PT: 16 s
  Plat: 128.4 x10_4/uL
  RBC: 631.8 x10_4/ul
  Ret: 5.2%
  WBC: 100.8 x10_2/uL
  KIDNEY_L: 1 g
  KIDNEY_R: 1 g
  KIDNEY_TOTAL: 2.1 g
  ALT: 46 IU/L
  BUN: 15.4 mg/dL
  CRE: 0.2 mg/dL
  DBIL: 0 mg/dL
  GLC: 183.2 mg/dL
  IP: 7.7 mg/dL
  K: 4.4 meq/L
  LDH: 163.4 IU/L
  PL: 143.6 mg/dL
  RALB: 3.1 g/dL
  TBIL: 0.014 mg/dL
  TC: 78.6 mg/dL
  TG: 85.8 mg/dL
  TP: 5.7 g/dL
  gamma-GTP: 1.6 IU/L
3 mg/kg, 3 h, dose level High
  TERMINAL_BW: 219.6 g
  APTT: 22.3 s
  Bas: 0%
  Eos: 1%
  Fbg: 271 mg/dL
  Hb: 12.7 g/dL
  Ht: 39%
  Lym: 78.4%
  MCV: 65.3 fL
  Mono: 2.8%
  PT: 15.9 s
  Plat: 130.5 x10_4/uL
  RBC: 596.8 x10_4/ul
  Ret: 6.7%
  WBC: 97.6 x10_2/uL
  KIDNEY_L: 1 g
  KIDNEY_R: 1 g
  KIDNEY_TOTAL: 1.9 g
  LIVER: 9.7 g
  ALP: 1622.8 IU/L
  ALT: 43.4 IU/L
  AST: 80.6 IU/L
  CRE: 0.2 mg/dL
  DBIL: 0 mg/dL
  GLC: 177.6 mg/dL
  IP: 9 mg/dL
  K: 4.2 meq/L
  LDH: 166.2 IU/L
  Na: 139.4 meq/L
  PL: 115 mg/dL
  RALB: 2.8 g/dL
  TBIL: 0.026 mg/dL
  TC: 64.8 mg/dL
  TG: 63.6 mg/dL
  TP: 5.2 g/dL
  gamma-GTP: 1.6 IU/L
3 mg/kg, 6 h, dose level High
  TERMINAL_BW: 210.6 g
  APTT: 22 s
  Bas: 0%
  Eos: 0.8%
  Fbg: 280.6 mg/dL
  Hb: 12.9 g/dL
  Ht: 39.8%
  MCV: 64 fL
  Mono: 2.8%
  PT: 15.3 s
  Plat: 123.5 x10_4/uL
  RBC: 623.2 x10_4/ul
  Ret: 6.2%
  WBC: 89 x10_2/uL
  KIDNEY_L: 0.9 g
  KIDNEY_R: 0.9 g
  KIDNEY_TOTAL: 1.9 g
  LIVER: 9.1 g
  ALP: 1307.8 IU/L
  ALT: 42.6 IU/L
  AST: 81 IU/L
  CRE: 0.2 mg/dL
  DBIL: 0 mg/dL
  GLC: 177.2 mg/dL
  IP: 9.5 mg/dL
  K: 4.7 meq/L
  Na: 139 meq/L
  PL: 127.8 mg/dL
  RALB: 2.9 g/dL
  TBIL: 0 mg/dL
  TC: 75 mg/dL
  TG: 79.2 mg/dL
  TP: 5.3 g/dL
  gamma-GTP: 1.8 IU/L
3 mg/kg, 9 h, dose level High
  TERMINAL_BW: 213.7 g
  APTT: 22.3 s
  Bas: 0%
  Eos: 0.6%
  Fbg: 287.4 mg/dL
  Ht: 38.5%
  Lym: 79.8%
  MCHC: 32.7%
  Mono: 1.8%
  PT: 15.4 s
  Plat: 137.7 x10_4/uL
  RBC: 615.8 x10_4/ul
  Ret: 5.4%
  WBC: 60.5 x10_2/uL
  KIDNEY_L: 1 g
  KIDNEY_R: 1 g
  KIDNEY_TOTAL: 1.9 g
  LIVER: 8.6 g
  ALP: 1222.8 IU/L
  ALT: 37.8 IU/L
  AST: 73 IU/L
  BUN: 12 mg/dL
  CRE: 0.1 mg/dL
  Ca: 11 mg/dL
  DBIL: 0 mg/dL
  GLC: 178.6 mg/dL
  IP: 9.8 mg/dL
  K: 4.4 meq/L
  LDH: 133.4 IU/L
  Na: 140.2 meq/L
  PL: 124 mg/dL
  RALB: 3 g/dL
  TBIL: 0.024 mg/dL
  TC: 70.2 mg/dL
  TG: 57 mg/dL
  TP: 5.4 g/dL
  gamma-GTP: 1.8 IU/L
3 mg/kg, 24 h, dose level High
  TERMINAL_BW: 220 g
  APTT: 22.6 s
  Bas: 0%
  Eos: 0.6%
  Fbg: 297.2 mg/dL
  Ht: 40.2%
  Lym: 87%
  MCH: 21 pg
  MCHC: 33%
  MCV: 63.8 fL
  Mono: 2.8%
  Neu: 9.4%
  Plat: 134.6 x10_4/uL
  RBC: 629.2 x10_4/ul
  Ret: 3.9%
  WBC: 73 x10_2/uL
  KIDNEY_L: 1 g
  KIDNEY_R: 1 g
  KIDNEY_TOTAL: 2 g
  LIVER: 9.6 g
  ALP: 1429.2 IU/L
  ALT: 39 IU/L
  AST: 72.4 IU/L
  BUN: 16.2 mg/dL
  CRE: 0.2 mg/dL
  DBIL: 0 mg/dL
  GLC: 181 mg/dL
  IP: 8.3 mg/dL
  K: 4.3 meq/L
  Na: 140 meq/L
  PL: 147.2 mg/dL
  RALB: 3.1 g/dL
  TBIL: 0.024 mg/dL
  TC: 89.2 mg/dL
  TG: 51.8 mg/dL
  TP: 5.5 g/dL
  gamma-GTP: 1.8 IU/L
